We go through three compounds from patent EP4692105A1, “CYCLIC POLYPEPTIDE COMPOUND AND USE THEREOF” (Bivision Pharmaceuticals, Inc, priority 2023, dated 2024).

In experiment [1] the target is T1, prolyl oligopeptidase (PREP) (Homo sapiens, UniProt P48147).
T1 sequence (P48147 1-710): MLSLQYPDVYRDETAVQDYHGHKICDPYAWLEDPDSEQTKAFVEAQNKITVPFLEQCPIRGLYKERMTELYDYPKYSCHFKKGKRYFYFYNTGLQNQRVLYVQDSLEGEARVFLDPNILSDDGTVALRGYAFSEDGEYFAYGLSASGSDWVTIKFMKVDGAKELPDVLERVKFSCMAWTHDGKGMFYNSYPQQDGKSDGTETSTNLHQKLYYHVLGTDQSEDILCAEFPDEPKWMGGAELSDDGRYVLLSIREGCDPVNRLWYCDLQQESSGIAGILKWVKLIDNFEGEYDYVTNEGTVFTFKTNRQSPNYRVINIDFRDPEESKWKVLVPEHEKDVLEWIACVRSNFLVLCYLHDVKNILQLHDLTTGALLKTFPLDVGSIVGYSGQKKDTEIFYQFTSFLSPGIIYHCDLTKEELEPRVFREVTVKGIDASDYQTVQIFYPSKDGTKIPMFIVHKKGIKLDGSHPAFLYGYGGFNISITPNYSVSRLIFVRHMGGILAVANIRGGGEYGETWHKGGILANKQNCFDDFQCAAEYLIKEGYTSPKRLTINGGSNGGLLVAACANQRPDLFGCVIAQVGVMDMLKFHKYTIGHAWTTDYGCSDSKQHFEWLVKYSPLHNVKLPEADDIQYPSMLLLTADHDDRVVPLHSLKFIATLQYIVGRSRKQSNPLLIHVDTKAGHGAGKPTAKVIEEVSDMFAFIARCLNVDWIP
Kind of experiment: Protease inhibition selectivity assay (fluorogenic substrate Z-Gly-Pro-AMC), PREP. Format: biochemical. The following applies: recombinant human PREP 0.6 nM, pH 8.0. As for the experimental part:
(§1) The specificity of the synthesized compounds for recombinant human dipeptidyl peptidase IV (DPPIV), fibroblast activation protein (FAP), or prolyl oligopeptidase (PREP) was expressed by their half-maximal inhibitory concentration (IC50) against the proteases. […] It was incubated at room temperature for 10 minutes, with the plate being shaken for the first two minutes. • 6) 10 µL of the 20x substrate prepared in step 3 was added to each well and incubated at room temperature for 15 minutes, with the plate being shaken for the first two minutes. • 7) Fluorescence was read at λex:380 and λem:460.

Experiment [2] concerns the target T2, fibroblast activation protein (FAP) (Homo sapiens, UniProt Q12884).
T2 sequence (Q12884 1-760): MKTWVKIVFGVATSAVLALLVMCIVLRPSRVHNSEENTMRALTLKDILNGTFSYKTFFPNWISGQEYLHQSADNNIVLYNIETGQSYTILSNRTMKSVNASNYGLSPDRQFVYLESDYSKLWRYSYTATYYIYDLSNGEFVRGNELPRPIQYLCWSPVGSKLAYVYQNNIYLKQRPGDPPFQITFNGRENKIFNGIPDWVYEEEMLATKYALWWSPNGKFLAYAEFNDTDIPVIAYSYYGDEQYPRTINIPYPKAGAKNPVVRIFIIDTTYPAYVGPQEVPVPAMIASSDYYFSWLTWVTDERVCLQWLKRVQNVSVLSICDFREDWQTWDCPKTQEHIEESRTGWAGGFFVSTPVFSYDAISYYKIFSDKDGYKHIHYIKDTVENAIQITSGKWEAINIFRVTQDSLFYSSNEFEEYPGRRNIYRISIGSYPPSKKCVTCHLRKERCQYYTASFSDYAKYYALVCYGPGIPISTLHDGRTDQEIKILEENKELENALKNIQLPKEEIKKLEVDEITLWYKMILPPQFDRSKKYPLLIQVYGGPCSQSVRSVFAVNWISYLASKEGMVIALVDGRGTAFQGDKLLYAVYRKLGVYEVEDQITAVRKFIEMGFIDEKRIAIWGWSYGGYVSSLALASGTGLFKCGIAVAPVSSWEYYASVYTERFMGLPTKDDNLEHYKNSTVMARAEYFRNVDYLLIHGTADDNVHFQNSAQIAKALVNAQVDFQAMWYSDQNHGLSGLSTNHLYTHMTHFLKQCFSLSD
Kind of experiment: Protease inhibition selectivity assay (fluorogenic substrate Z-Gly-Pro-AMC), FAP. Format: biochemical. To be noted: recombinant human FAP 1.2 nM, pH 7.5. The procedure:
as §1

For experiment [3], the target named is dipeptidyl peptidase IV (DPPIV) (Homo sapiens, UniProt P27487). Put plainly: Protease inhibition selectivity assay (fluorogenic substrate Gly-Pro-AMC), DPPIV. Format: biochemical. To be noted: recombinant human DPPIV 0.1 nM, pH 7.5; read-out: pIC50 (DPPIV) (converted). As for the experimental part: as §1
Sequence of dipeptidyl peptidase IV (DPPIV) (P27487 whole entry): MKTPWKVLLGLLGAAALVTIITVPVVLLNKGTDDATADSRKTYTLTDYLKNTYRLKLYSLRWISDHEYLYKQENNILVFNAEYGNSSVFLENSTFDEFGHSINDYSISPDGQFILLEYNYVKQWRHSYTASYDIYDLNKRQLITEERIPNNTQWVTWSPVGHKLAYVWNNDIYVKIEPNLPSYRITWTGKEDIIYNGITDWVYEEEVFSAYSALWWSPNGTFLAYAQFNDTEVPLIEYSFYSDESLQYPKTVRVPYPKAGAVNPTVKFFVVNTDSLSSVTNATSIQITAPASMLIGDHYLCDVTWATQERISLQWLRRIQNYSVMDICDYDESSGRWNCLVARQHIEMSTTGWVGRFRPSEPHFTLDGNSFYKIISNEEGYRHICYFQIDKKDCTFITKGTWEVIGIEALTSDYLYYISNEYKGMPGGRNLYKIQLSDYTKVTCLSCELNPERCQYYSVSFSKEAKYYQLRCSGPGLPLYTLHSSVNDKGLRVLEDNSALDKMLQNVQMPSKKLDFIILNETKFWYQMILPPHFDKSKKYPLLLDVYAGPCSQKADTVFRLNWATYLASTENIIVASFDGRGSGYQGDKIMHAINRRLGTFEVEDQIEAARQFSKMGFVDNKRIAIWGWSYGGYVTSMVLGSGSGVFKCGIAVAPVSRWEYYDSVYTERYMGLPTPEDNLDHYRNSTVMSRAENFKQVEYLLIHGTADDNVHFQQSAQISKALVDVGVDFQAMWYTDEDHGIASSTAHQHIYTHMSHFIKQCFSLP
The target in another experiment is T3, FAP protein (Homo sapiens, UniProt Q12884).
T3 construct: purchased Sinobiological
T3 sequence (Q12884 1-760): T2 sequence (Q12884 1-760)
Kind of experiment: Biacore (SPR) test of compound affinity to FAP protein. Format: binding. To be noted: for pKD (FAP): Biacore 8K, SA chip, 15 °C, single cycle, 1:1 binding model, pKD = -LogKD. The procedure:
The Biacore 8K (Cytiva) instrument was used to detect ligand binding of the FAP protein (Sinobiological). FAP protein was captured on the SA chip. Prior to ligand immobilization (flow paths 1 and 2, flow rate of 10 µL/min), FAP protein (10 µg/mL, flow rate of 5 µL/min, injection time of 600 s) was immobilized on flow path 2 using running buffer. The sensor surface was conditioned by injecting 1M NaCl three consecutive times in 50 mM NaOH. After each ligand injection, additional cleaning was performed using isopropanol in 1M NaCl and 50 mM NaOH (flow path 1 and 2, flow rate of 10 µL/min, injection time of 60 s).
The tested compound was dissolved in 100% dimethyl sulfoxide and diluted to 10 mM, then diluted in the assay buffer (PBS, pH 7.4, 1 mM TCEP ([…]), 0.05% P20, 2% dimethyl sulfoxide) to an appropriate maximum concentration. The analyte was run under the following conditions: analysis temperature of 15 °C, analysis step = all set to LMW kinetics; cycle type = single cycle (contact time of 90 s, dissociation time of 1800 s, flow rate of 30 µL/min, flow channels 1 and 2); channel detection = 2-1. Data was evaluated using the Biacore Insight Evaluation Software, and the data were fitted to a 1:1 binding model.
The Biacore results are shown in Table 2 below: pKD = -LogKD, where KD is the binding affinity of the compound to the FAP protein as measured by Biacore.

Ends that are not written are not given here.

On to `CCCCCC(=O)N[C@H]1CSCc2cc(CSCCNC(=O)CN3CCN(CC(=O)O)CCN(CC(=O)O)CCN(CC(=O)O)CC3)cc(c2)CSC[C@@H](C(=O)O)NC(=O)[C@H](Cc2ccccc2)NC(=O)[C@H](CCC(N)=O)NC(=O)[C@H]([C@@H](C)O)NC(=O)[C@@H]2CCCN2C(=O)[C@@H]2CCCN2C1=O` [FAP-2286], for which the IC50 in experiment [1] was above 1000 nM; in experiment [2], below 10 nM; in experiment [3], above 1000 nM. Besides, on FAP protein (read-out: pKD (FAP) (converted)), the Kd is 10 to 100 nM.

On to “Oct[Cys(tMeBn-DOTA-AET)-hhy39-Pro-Thr-Gln-hhy34-Cys]-Glu-(Arg-Gly-Asp(NH2))-OH [JHDC21]”, for which the “pKD (FAP)” value at FAP protein is recorded as “B (B: 7<pKD<8)”.

Consider “Hex[Cys(3MeBn)-hhy44(NH)-CO-Pro-Thr-Gln-Phe-Cys]-Lys-(DOTA)-OH (PTQFC-{K(DOTA)-OH}; not fully specified (N-terminus, bridges); also: cyclised within brackets, ring closure not given here) [JHDC07]”, for which, in the experiment with FAP protein, the “pKD (FAP)” value is “B (B: 7<pKD<8)”.
